Values after ≈ are worked out from the molar mass of the structure shown.
Assays:
Experiment in all cases: In vitro antifungal activity, microbroth dilution (MIC)
Assay type in all cases: cell-based
[1] = tested on: C. glabrata 61L; details: Nakaseomyces glabratus; C. glabrata 61L; 35 °C, 24 h; read-out: MIC
Description: (§1) The in vitro antifungal screening results of synthesized compounds was evaluated against three fungal strains: C. parapsilosis ATCC 22019, C. utilis 84, and C. glabrata 61L are summarized in Table 1.
(§2) The in vitro antifungal activity of the target compounds was measured by means of the minimal inhibitory concentrations (MIC) with fluconazole as the control drug. Procedure was carried out by the microbroth dilution method in 96-well plates according to the recommendations of the Clinical and Laboratory Standards Institute. The detailed information was reported previously. The investigated pathogenic species included C. parapsilosis ATCC 22019, C. utilis 84 and C. glabrata 61. The sensitivity was evaluated visually, after the incubation at 35 °C for 24 h and the value was compared with the growth density in the reference culture without the sample. Each test was conducted in triplicate.

[2] = tested on: C. utilis 84; details: Williopsis jadinii; C. utilis 84; 35 °C, 24 h; read-out: MIC
Description: as §1, §2

[3] = tested on: C. parapsilosis ATCC 22019; details: Lodderomyces parapsilosis, ATCC22019; C. parapsilosis ATCC 22019; 35 °C, 24 h; read-out: MIC
Description: as §1, §2

Question: `OC(Cn1cncn1)(Cn1cncn1)c1ccc(F)cc1F` [Fluconazole, reference compound] was tested. Which MIC [1] did it give?
Answer: 8 µg/mL (≈ 26.1 µM)

Question: And the MIC [2]?
Answer: 2 µg/mL (≈ 6.53 µM)

Question: What about the MIC [3] of the same compound?
Answer: 2 µg/mL (≈ 6.53 µM)
